Test results taken from patent US20150158845A1, “5-HALOGEN-SUBSTITUTED OXINDOLE DERIVATIVES AND USE THEREOF FOR TREATING VASOPRESSIN-DEPENDENT DISEASES” (ABBVIE DEUTSCHLAND GMBH & CO. KG, priority 2007, published 2015).

Tests used:
[1] = biological target: human vasopressin V1a receptor (Homo sapiens, UniProt P37288); experiment: Vasopressin V1a receptor binding assay; conditions: selectivity: quotient of Ki at human V1a and Ki at human V1b
[2] = biological target: T1, human vasopressin V1b receptor (Homo sapiens, UniProt P47901); experiment: Vasopressin V1b receptor binding assay; conditions: membranes from CHO-K1 cells with human V1b receptor, 1.5 nM 3H-AVP
T1 construct: expressed in transfected cells; host or cells: CHO-K1 (clone 3H2; cell line hV1b-3H2_CHO), membrane preparation
T1 sequence (P47901 1-424): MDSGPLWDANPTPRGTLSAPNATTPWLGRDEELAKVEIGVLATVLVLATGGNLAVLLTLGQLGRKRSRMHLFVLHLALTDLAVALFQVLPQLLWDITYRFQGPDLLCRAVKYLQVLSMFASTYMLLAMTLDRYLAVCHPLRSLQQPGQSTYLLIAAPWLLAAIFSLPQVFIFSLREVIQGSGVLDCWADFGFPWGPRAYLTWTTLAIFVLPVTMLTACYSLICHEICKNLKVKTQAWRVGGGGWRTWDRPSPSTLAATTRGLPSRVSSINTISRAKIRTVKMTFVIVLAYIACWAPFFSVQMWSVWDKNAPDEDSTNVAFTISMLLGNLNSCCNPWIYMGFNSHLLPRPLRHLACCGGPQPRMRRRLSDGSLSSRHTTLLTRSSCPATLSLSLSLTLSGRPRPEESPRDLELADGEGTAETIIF
Experimental: 1. Vasopressin V1b Receptor Binding Assay:
The substance concentration was further diluted 1:5 in the assay mixture (2% DMSO in the mixture).
The nonspecific binding was determined with 1 M AVP (Bachem # H1780). All determinations were carried out as triplicate determinations.

[3] = Determination of the microsomal half-life / microsomal clearance; assay type: in vitro ADME; conditions: human liver microsomes, 0.5 μM test substance, 0.25 mg microsomal protein/ml; for microsomal CLint at 0.5 μM: pH 7.4
Experimental: 5. Determination of the Microsomal Half-Life:
The metabolic stability of the compounds of the invention was determined in the following assay.
The test substances were incubated in a concentration of 0.5 μM as follows: 0.5 μM test substance are preincubated together with liver microsomes from different species (from rat, human or other species) (0.25 mg of microsomal protein/ml) in 0.05 M potassium phosphate buffer of pH 7.4 in microtiter plates at 37° C. for 5 min. The reaction is started by adding NADPH (1 mg/mL). After 0, 5, 10, 15, 20 and 30 min, 50 μl aliquots are removed, and the reaction is immediately stopped and cooled with the same volume of acetonitrile. The samples are frozen until analyzed. The remaining concentration of undegraded test substance is determined by MSMS. The half-life (T½) is determined from the gradient of the signal of test substance/unit time plot, it being possible to calculate the half-life of the test substance, assuming first order kinetics, from the decrease in the concentration of the compound with time. The microsomal clearance (mCl) is calculated from mCl=In2/T½/(content of microsomal protein in mg/ml)×1000 […] (modified from references: Di, The Society for Biomoleculur Screening, 2003, 453-462; Obach, DMD, 1999 vol 27. N 11, 1350-1359).

Sequence of human vasopressin V1a receptor (P37288 whole entry): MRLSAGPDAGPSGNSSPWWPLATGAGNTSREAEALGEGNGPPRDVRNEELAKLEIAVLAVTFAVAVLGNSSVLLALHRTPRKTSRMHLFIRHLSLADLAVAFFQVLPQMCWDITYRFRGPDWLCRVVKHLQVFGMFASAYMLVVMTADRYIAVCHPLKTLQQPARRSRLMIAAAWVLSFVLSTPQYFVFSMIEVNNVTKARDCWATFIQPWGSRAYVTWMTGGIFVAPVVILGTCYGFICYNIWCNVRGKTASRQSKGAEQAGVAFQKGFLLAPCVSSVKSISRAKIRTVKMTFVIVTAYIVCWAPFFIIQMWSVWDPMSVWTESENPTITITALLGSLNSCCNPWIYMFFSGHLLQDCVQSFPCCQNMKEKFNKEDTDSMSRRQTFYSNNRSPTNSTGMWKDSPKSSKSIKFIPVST

| Structure (SMILES) | Ki(h-V1a)/Ki(h-V1b) [1] | Ki [2] | microsomal CLint at 0.5 μM [3] | Human microsomal clearance [3] |
| --- | --- | --- | --- | --- |
| CCOc1ncccc1C1(NC(=O)N2CCN(C3CCN(C)CC3)CC2)C(=O)N(S(=O)(=O)c2ccc(OC)cc2OC)c2ccc(Cl)cc21 (racemic) [Example 1, (±)-4-(1-Methylpiperidin-4-yl)piperazin-1-[5-chloro-1-(2,4-dimethoxyphenylsulfonyl)-3-(2-ethoxypyridin-3-yl)-2-oxo-2,3-dihydro-1H-indol-3-yl]carboxamide] | +++ (>75) | < 1 nM | 75 to 100 µL/min/mg |  |
| CCOc1ncccc1C1(NC(=O)N2CCN(C3CCN(C)CC3)CC2)C(=O)N(S(=O)(=O)c2ccccc2)c2ccc(Cl)cc21.O=C(O)C(F)(F)F (racemic) [Example 3, (±)-4-(1-Methylpiperidin-4-yl)piperazine-1-[1-phenylsulfonyl-5-chloro-3-(2-ethoxypyridin-3-yl)-2-oxo-2,3-dihydro-1H-indol-3-yl]carboxamide, trifluoroacetic acid salt] | ++ (25-75) | 1 to 10 nM |  | +++ (<50 μl min^−1 mg^−1) |
| CCOc1ncccc1C1(NC(=O)N2CCC(C3CCN(C)CC3)CC2)C(=O)N(S(=O)(=O)c2ccc(OC)cc2OC)c2ccc(Cl)cc21 (racemic) [Example 13, (±)-1′-Methyl-[4,4′]bipiperidinyl-1-[5-chloro-1-(2,4-dimethoxyphenylsulfonyl)-3-(2-ethoxypyridin-3-yl)-2-oxo-2,3-dihydro-1H-indol-3-yl]carboxamide] | ++ (25-75) | < 1 nM | 75 to 100 µL/min/mg |  |
| CCOc1ncc(C)cc1C1(NC(=O)N2CCN(C3CCN(C)CC3)CC2)C(=O)N(S(=O)(=O)c2ccc(OC)cc2OC)c2ccc(Cl)cc21.O=C(O)C(F)(F)F (racemic) [Example 14, (±)-4-(1-Methylpiperidin-4-yl)piperazine-1-[5-chloro-1-(2,4-dimethoxyphenylsulfonyl)-3-(2-ethoxy-5-methylpyridin-3-yl)-2-oxo-2,3-dihydro-1H-indol-3-yl]carboxamide, trifluoroacetic acid salt] | +++ (>75) | < 1 nM |  | ++ (50-75 μl min^−1 mg^−1) |
| CCOc1ncc(C)cc1C1(NC(=O)N2CCN(C3CCN(CC)CC3)CC2)C(=O)N(S(=O)(=O)c2ccc(OC)cc2OC)c2ccc(Cl)cc21.O=C(O)C(F)(F)F (racemic) [Example 15, (±)-4-(1-Ethylpiperidin-4-yl)piperazine-1-[5-chloro-1-(2,4-dimethoxyphenylsulfonyl)-3-(2-ethoxy-5-methylpyridin-3-yl)-2-oxo-2,3-dihydro-1H-indol-3-yl]carboxamide, trifluoroacetic acid salt] | ++ (25-75) | < 1 nM |  | + (>75-100 μl min^−1 mg^−1) |
| CCOc1ncc(C)cc1C1(NC(=O)N2CCC(N3CCN(C)CC3)CC2)C(=O)N(S(=O)(=O)c2ccc(OC)cc2OC)c2ccc(Cl)cc21.O=C(O)C(F)(F)F (racemic) [Example 16, (±)-4-(4-Methylpiperazin-1-yl)piperidine-1-[5-chloro-1-(2,4-dimethoxyphenylsulfonyl)-3-(2-ethoxy-5-methylpyridin-3-yl)-2-oxo-2,3-dihydro-1H-indol-3-yl]carboxamide, trifluoroacetic acid salt] | + (10-<25) | < 1 nM |  | + (>75-100 μl min^−1 mg^−1) |
| CCOc1ncc(C)cc1C1(NC(=O)N2CCC(N3CCN(CC)CC3)CC2)C(=O)N(S(=O)(=O)c2ccc(OC)cc2OC)c2ccc(Cl)cc21.O=C(O)C(F)(F)F (racemic) [Example 17, (±)-4-(4-Ethylpiperazin-1-yl)piperidine-1-[5-chloro-1-(2,4-dimethoxyphenylsulfonyl)-3-(2-ethoxy-5-methylpyridin-3-yl)-2-oxo-2,3-dihydro-1H-indol-3-yl]carboxamide, trifluoroacetic acid salt] | + (10-<25) | < 1 nM |  | + (>75-100 μl min^−1 mg^−1) |
| CCOc1ncccc1C1(OC(=O)N2CCN(C3CCN(C)CC3)CC2)C(=O)N(S(=O)(=O)c2ccccc2)c2ccc(Cl)cc21.O=C(O)C(F)(F)F (racemic) [Example 24, 1-Phenylsulfonyl-5-chloro-3-(2-ethoxypyridin-3-yl)-2-oxo-2,3-dihydro-1H-indol-3-yl (±)-4-(1-methylpiperidin-4-yl)piperazine-1-carboxylate, trifluoroacetic acid salt] | ++ (25-75) | 1 to 10 nM | 50 to 75 µL/min/mg |  |
| CCOc1ncccc1C1(CC(=O)N2CCN(C3CCN(C)CC3)CC2)C(=O)N(S(=O)(=O)c2ccc(OC)cc2OC)c2ccc(Cl)cc21.O=C(O)C(F)(F)F (racemic) [Example 28, (±)-5-Chloro-1-(2,4-dimethoxyphenylsulfonyl)-3-(2-ethoxypyridin-3-yl)-3-{2-[4-(1-methylpiperidin-4-yl)piperazin-1-yl]-2-oxoethyl}-1,3-dihydroindol-2-one, trifluoroacetic acid salt] | ++ (25-75) | < 1 nM | 75 to 100 µL/min/mg |  |
| CCOc1ncccc1C1(CC(=O)N2CCN(C3CCN(C)CC3)CC2)C(=O)N(S(=O)(=O)c2ccccc2)c2ccc(Cl)cc21.O=C(O)C(F)(F)F (racemic) [Example 29, (±)-1-Phenylsulfonyl-5-chloro-3-(2-ethoxypyridin-3-yl)-3-{2-[4-(1-methylpiperidin-4-yl)piperazin-1-yl]-2-oxoethyl}-1,3-dihydroindol-2-one, trifluoroacetic acid salt] | + (10-<25) | 1 to 10 nM | < 50 µL/min/mg |  |
| CCOc1ncccc1C1(CC(=O)N2CCC(N3CCN(CC)CC3)CC2)C(=O)N(S(=O)(=O)c2ccc(OC)cc2OC)c2ccc(Cl)cc21.O=C(O)C(F)(F)F (racemic) [Example 32, (±)-5-Chloro-1-(2,4-dimethoxyphenylsulfonyl)-3-(2-ethoxypyridin-3-yl)-3-{2-[4-(4-ethylpiperazin-1-yl)piperidin-1-yl]-2-oxoethyl}-1,3-dihydroindol-2-one, trifluoroacetic acid salt] | + (10-<25) | < 1 nM | 50 to 75 µL/min/mg |  |
| CCOc1ncccc1C1(NC(=O)N2CCN(C3CCN(C)CC3)CC2)C(=O)N(S(=O)(=O)c2ccc(OC)cc2OC)c2ccc(Cl)cc21 (single isomer, unassigned; (+)) [Example 1B, (+)-4-(1-Methylpiperidin-4-yl)piperazine-1-[5-chloro-1-(2,4-dimethoxyphenylsulfonyl)-3-(2-ethoxypyridin-3-yl)-2-oxo-2,3-dihydro-1H-indol-3-yl]carboxamide] | +++ (>75) | < 1 nM | < 50 µL/min/mg |  |
| CCOc1ncccc1C1(NC(=O)N2CCN(C3CCN(CC)CC3)CC2)C(=O)N(S(=O)(=O)c2ccc(OC)cc2OC)c2ccc(Cl)cc21 (single isomer, unassigned; (+)) [Example 4B, (+)-4-(1-Ethylpiperidin-4-yl)piperazine-1-[5-chloro-1-(2,4-dimethoxyphenylsulfonyl)-3-(2-ethoxypyridin-3-yl)-2-oxo-2,3-dihydro-1H-indol-3-yl]carboxamide] | +++ (>75) | < 1 nM | 50 to 75 µL/min/mg |  |
| CCOc1ncccc1C1(NC(=O)N2CCC(N3CCN(C)CC3)CC2)C(=O)N(S(=O)(=O)c2ccc(OC)cc2OC)c2ccc(Cl)cc21 (single isomer, unassigned; (+)) [Example 5B, (+)-4-(4-Methylpiperazin-1-yl)piperidine-1-[5-chloro-1-(2,4-dimethoxyphenylsulfonyl)-3-(2-ethoxypyridin-3-yl)-2-oxo-2,3-dihydro-1H-indol-3-yl]carboxamide] | +++ (>75) | < 1 nM | < 50 µL/min/mg |  |
